The values below come from patent publication US20110009381A1, “SOLUBILIZED THIAZOLOPYRIDINES” (Sirtis Pharmaceuticals, Inc., priority 2007, published 2011).

The target in the experiment is T1, SIRT1 (Homo sapiens, UniProt Q96EB6).
T1 sequence (Q96EB6 1-747): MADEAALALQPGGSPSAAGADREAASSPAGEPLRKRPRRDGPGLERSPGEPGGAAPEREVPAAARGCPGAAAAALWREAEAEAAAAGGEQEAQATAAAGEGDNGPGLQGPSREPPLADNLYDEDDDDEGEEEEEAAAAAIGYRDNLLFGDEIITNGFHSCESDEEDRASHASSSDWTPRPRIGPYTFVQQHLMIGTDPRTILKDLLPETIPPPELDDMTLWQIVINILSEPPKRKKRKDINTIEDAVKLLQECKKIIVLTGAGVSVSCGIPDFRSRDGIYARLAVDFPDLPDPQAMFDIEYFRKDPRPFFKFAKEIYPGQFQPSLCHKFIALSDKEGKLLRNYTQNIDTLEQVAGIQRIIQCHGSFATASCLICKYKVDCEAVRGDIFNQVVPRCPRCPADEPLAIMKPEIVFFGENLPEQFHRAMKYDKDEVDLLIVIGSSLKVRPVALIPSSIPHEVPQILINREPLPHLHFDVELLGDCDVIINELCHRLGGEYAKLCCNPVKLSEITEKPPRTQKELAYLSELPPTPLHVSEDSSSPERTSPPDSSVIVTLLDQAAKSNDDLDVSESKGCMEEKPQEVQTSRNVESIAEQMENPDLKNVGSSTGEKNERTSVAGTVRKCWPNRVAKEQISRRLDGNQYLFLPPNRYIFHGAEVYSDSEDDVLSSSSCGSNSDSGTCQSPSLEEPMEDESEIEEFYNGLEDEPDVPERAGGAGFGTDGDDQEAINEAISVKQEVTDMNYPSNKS
Nature of the experiment: Mass spectrometry based assay to identify modulators of SIRT1 activity (deacetylation of p53-based acetylated peptide substrate). In kind it is biochemical. The note with it: 10 nM SIRT1, 0.5 μM peptide substrate, 120 μM βNAD+, 25 minutes at 25° C.; for EC1.5: SIRT1 activation. Put shortly: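 Activation measured on His-tagged SIRT1 (10 nM, E. coli-expressed) deacetylating a 0.5 μM p53-derived acetyl-peptide with 120 μM βNAD^+ for 25 min at 25 °C, pH 8 Tris-acetate. After formic acid stop, mass spectrometry quantified acetylated versus deacetylated peptide, referenced to DMSO and nicotinamide controls. Reported as EC1.5 and maximum fold activation.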

Turning to `O=C(Nc1ccccc1-c1nc2cccnc2s1)c1cc(NC2CCN(C3CC3)CC2)nc(-c2ccccc2)n1` [Compound 118], the “FOLD ACT. (percent maximum fold activation)” value is reported as “A (Fold activation≧300%)” and the EC1.5 entry is “A′ (EC1.5<250 nM)”.

For the compound `Cc1cccc(-c2nc(NCCN3CCCCC3)cc(C(=O)Nc3ccccc3-c3nc4cccnc4s3)n2)c1` [Compound 132], the “FOLD ACT. (percent maximum fold activation)” value is given as “A (Fold activation≧300%)” and the EC1.5 result is recorded as “A′ (EC1.5<250 nM)”.

Consider `CN(C)CCCOc1cc(C(=O)Nc2ccccc2-c2nc3cccnc3s2)nc(-c2ccccc2)n1` [Compound 153], for which the “FOLD ACT. (percent maximum fold activation)” value is “A (Fold activation≧300%)”; the EC1.5 result is “A (EC1.5≧250 nM and ≦1 uM)”.

In the case of `Cl.O=C(Nc1ccccc1-c1nc2cccnc2s1)c1cc(NCCN2CCCCC2)nc(-c2ccccc2)n1` [Compound 67], the “FOLD ACT. (percent maximum fold activation)” value is listed as “A (Fold activation≧300%)” and the EC1.5 entry is on record as “A′ (EC1.5<250 nM)”.

`NCCOc1cc(C(=O)Nc2ccccc2-c2nc3cccnc3s2)nc(-c2ccccc2)n1` [Compound 152]: the “FOLD ACT. (percent maximum fold activation)” value is reported as “A (Fold activation≧300%)” and the EC1.5 entry was “A′ (EC1.5<250 nM)”.

Regarding `Cc1ccc(-c2nc(NCCN(C)C)cc(C(=O)Nc3ccccc3-c3nc4cccnc4s3)n2)cc1` [Compound 111], the “FOLD ACT. (percent maximum fold activation)” value is “A (Fold activation≧300%)” and the EC1.5 result is on record as “A′ (EC1.5<250 nM)”.

On to `CC1(C)OC[C@H](COc2cc(C(=O)Nc3ccccc3-c3nc4cccnc4s3)nc(-c3ccccc3)n2)O1` [Compound 97], for which the “FOLD ACT. (percent maximum fold activation)” value was “B (Fold Activation≧150% and <300%)”; the EC1.5 result is listed as “C (EC1.5>10 uM)”.

With `CC(=O)NCCNc1cc(C(=O)Nc2ccccc2-c2nc3cccnc3s2)nc(-c2ccccc2)n1` [Compound 51], the “FOLD ACT. (percent maximum fold activation)” value is reported as “A (Fold activation≧300%)” and the EC1.5 entry was “A′ (EC1.5<250 nM)”.

As to `O=C(Nc1ccccc1-c1nc2cccnc2s1)c1cc(OC[C@H](O)CO)nc(-c2ccccc2)n1` [Compound 107], the “FOLD ACT. (percent maximum fold activation)” value was “B (Fold Activation≧150% and <300%)”; the EC1.5 result is “A (EC1.5≧250 nM and ≦1 uM)”.
